Measured values: patent US11168283B2, “Malodor counteracting ingredients” (Firmenich SA, priority 2017, dated 2021)

Molecular target: T1, butyric acid olfactory receptor OR51E1 (Homo sapiens, UniProt Q8TCB6)
T1 construct: expressed in transfected cells
T1 sequence (Q8TCB6 1-318): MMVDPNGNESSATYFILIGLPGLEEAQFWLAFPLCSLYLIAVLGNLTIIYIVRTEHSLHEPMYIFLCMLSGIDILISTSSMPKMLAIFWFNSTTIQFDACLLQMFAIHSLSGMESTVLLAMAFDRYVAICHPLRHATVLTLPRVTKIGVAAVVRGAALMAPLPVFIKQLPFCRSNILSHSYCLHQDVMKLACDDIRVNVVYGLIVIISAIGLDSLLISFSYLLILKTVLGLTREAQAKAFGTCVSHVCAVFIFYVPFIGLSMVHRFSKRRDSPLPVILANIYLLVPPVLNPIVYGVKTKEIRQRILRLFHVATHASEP
Assay: Inhibitory dose-response assay in a cell line expressing the OR51E1 olfactory receptor, in the presence of butyric acid (EC87)
Format: cell-based
Details: maximum % inhibition of butyric acid (EC87) induced OR51E1 activity, normalized to baseline agonist activity

Compound	Inhibition (%)
CC(=NO)C1C(C)C(C)[C@@]23CC[C@H](CC12)C3 (some centres unmarked) [~{N}-[1[(1~{S},7~{R})-2,3-dimethyl-4-tricyclo[5.2.1.0^1,5]decanyl]ethylidene]hydroxylamine]	19%
CC1CC(C)(C=NO)C2C[C@H]3CC[C@]12C3 (some centres unmarked) [~{N}-[[(1~{S},7~{R})-2,4-dimethyl-4-tricyclo[5.2.1.0^1,5]decanyl]methylidene]hydroxylamine]	38%
